IC50 data for 7 molecules are collected here from BindingDB's records for doi:10.1016/j.bmcl.2011.10.052 (Rhône-Poulenc Rorer, 2011).

The target of the assay is Dihydroorotate dehydrogenase (quinone), mitochondrial (Homo sapiens, UniProt Q02127). The assay is described as follows: Inhibition of human dihydroorotate dehydrogenase.
Dihydroorotate dehydrogenase (quinone), mitochondrial, sequence (Q02127 whole entry): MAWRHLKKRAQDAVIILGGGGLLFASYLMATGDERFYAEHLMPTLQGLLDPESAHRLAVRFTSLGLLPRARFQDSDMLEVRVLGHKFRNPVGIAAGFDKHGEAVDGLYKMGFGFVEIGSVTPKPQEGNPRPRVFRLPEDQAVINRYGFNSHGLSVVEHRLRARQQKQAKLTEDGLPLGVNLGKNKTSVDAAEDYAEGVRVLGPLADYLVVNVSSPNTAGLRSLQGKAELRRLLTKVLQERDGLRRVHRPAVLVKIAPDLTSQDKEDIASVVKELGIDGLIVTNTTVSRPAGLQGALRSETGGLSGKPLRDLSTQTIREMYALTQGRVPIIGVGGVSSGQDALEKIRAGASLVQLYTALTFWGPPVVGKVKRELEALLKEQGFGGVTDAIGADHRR
As usually defined, the IC50 is the concentration that inhibits the measured activity by half. Higher therefore signals weaker potency in that assay. As to `CCC(=O)C(C#N)C(=O)Nc1ccc(-c2ccc3c(c2)OCCO3)c(C(=O)OC)c1` (configuration not stated), the half-inhibitory concentration (IC50) turned out to be 66 nM.
To `CCC(=O)C(C#N)C(=O)Nc1ccc(-c2cccc(OC3CCC3)c2)c(C(=O)OC)c1` (configuration not stated) belongs 31 nM; to `CCC(=O)C(C#N)C(=O)Nc1ccc(-c2cccc(Cl)c2)c(C(=O)OC)c1` (configuration not stated), 31 nM; to `CCC(=O)C(C#N)C(=O)Nc1ccc(-c2ccc(F)nc2)c(C(=O)OC)c1` (configuration not stated), 150 nM.
To `CCC(=O)C(C#N)C(=O)Nc1ccc(OS(=O)(=O)C(F)(F)F)cc1` (configuration not stated) belongs 150 nM; to `CCC(=O)C(C#N)C(=O)Nc1ccc(-c2ccc(F)cc2OC)c(C(=O)OC)c1` (configuration not stated), 66 nM; to `CCC(=O)C(C#N)C(=O)Nc1ccc(-c2ccc(F)cc2F)c(C(=O)OC)c1` (configuration not stated), 31 nM.
